Measurements: US20070287738A1, “Substituted Cyanopyridines as protein kinase inhibitors” (priority 2006, published 2007)

Target: T1, purified recombinant active kinase domain of full length PKC theta (amino acids 362-706) (Homo sapiens, UniProt Q04759)
T1 construct: active kinase domain of full length PKC theta (amino acids 362-706)
Assay: Radioactive kinase assay for inhibition of the active kinase domain (KD) of PKCθ
Format: biochemical
Settings: radioactive (ATP γ P33) assay, average value
Method: A Radioactive Kinase Assay for Inhibition of the Active Kinase Domain (KD) of PKCθ
This assay is based on the phosphorylation of a biotinylated substrate by a kinase utilizing radiolabeled ATP (ATP γ P33). The substrate was a biotinylated peptide with a sequence of biotin-FARKGSLRQ-C(O)NH2. The enzyme was purified recombinant active kinase domain of full length PKC theta (amino acids 362-706). The assay buffer was composed of 100 mM Hepes, pH7.5, 2 mM MgCl2, 20 mM β-glycerophosphate and 0.008% TritonX 100. A reaction mixture of ATP, ATP γ P33 (PerkinElmer), DTT, and the enzyme was prepared in the assay buffer and added to a 96-well polypropylene plate. The compound (diluted in DMSO in a separate 96-well polypropylene plate) was added to the reaction mixture and incubated at room temperature. Following the incubation, the peptide substrate was added to the reaction mixture to initiate the enzymatic reaction. The reaction was terminated with the addition of a stop solution (100 mM EDTA, 0.2% TritonX100, and 20 mM NaHPO4) and transferred from the assay plate to a washed streptavidin-coated 96-well scintiplate (PerkinElmer). The scintiplate was incubated at room temperature, washed in PBS with 0.1% TritonX 100, and counted in the 1450 Microbeta Trilux (Wallac, Version 2.60). Counts were recorded for each well as corrected counts per minute (CCPM). The counts were considered corrected because they were adjusted according to a P33 normalization protocol, which corrects for efficiency and background differences between the instrument detectors (software version 4.40.01).

T1 sequence (Q04759 362-706): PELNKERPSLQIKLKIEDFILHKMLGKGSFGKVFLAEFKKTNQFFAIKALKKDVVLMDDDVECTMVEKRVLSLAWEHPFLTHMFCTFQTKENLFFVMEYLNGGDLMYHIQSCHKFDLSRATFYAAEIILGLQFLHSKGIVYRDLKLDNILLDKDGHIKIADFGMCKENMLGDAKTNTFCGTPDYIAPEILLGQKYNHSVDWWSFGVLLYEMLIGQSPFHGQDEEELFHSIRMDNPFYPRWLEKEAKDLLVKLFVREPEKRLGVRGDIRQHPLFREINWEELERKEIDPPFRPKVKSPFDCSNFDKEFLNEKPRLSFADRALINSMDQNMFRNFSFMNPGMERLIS

Row | Structure (SMILES) | IC50 [µM]
1 | COc1ccc(-c2cncc(C#N)c2Nc2ccc(F)c(Cl)c2)cc1OC [Compound 107, 4-[(3-chloro-4-fluorophenyl)amino]-5-(3,4-dimethoxyphenyl)nicotinonitrile] | 2.91
2 | COc1ccc(Nc2c(C#N)cncc2-c2ccc(OC)c(OC)c2)cc1Cl [Compound 111, 4-[(3-chloro-4-methoxyphenyl)amino]-5-(3,4-dimethoxyphenyl)nicotinonitrile] | 1.41
3 | COc1ccc(-c2cncc(C#N)c2Nc2ccc(OCc3cccs3)c(Cl)c2)cc1OC [Compound 123, 4-{[3-chloro-4-(thien-2-ylmethoxy)phenyl]amino}-5-(3,4-dimethoxyphenyl)nicotinonitrile] | 38
4 | COc1ccc(-c2cncc(C#N)c2Nc2cccc(Cl)c2)cc1OC [Compound 101, 4-[(3-chlorophenyl)amino]-5-(3,4-dimethoxyphenyl)nicotinonitrile] | 6.87
5 | COc1ccc(-c2cncc(C#N)c2Nc2cc(F)ccc2F)cc1OC [Compound 104, 4-[(2,5-difluorophenyl)amino]-5-(3,4-dimethoxyphenyl)nicotinonitrile] | 0.6
6 | COc1ccc(-c2cncc(C#N)c2Nc2ccc(Cl)cc2F)cc1OC [Compound 106, 4-[(4-chloro-2-fluorophenyl)amino]-5-(3,4-dimethoxyphenyl)nicotinonitrile] | 0.84
7 | COc1ccc(Nc2c(C#N)cncc2-c2ccc(OC)c(OC)c2)cc1 [Compound 110, 5-(3,4-dimethoxyphenyl)-4-[(4-methoxyphenyl)amino]nicotinonitrile] | 1.16
8 | N#Cc1cncc(-c2cccc([N+](=O)[O-])c2)c1Nc1ccc(OCc2ccccc2)c(Cl)c1 [Compound 142, 4-{[4-(benzyloxy)-3-chlorophenyl]amino}-5-(3-nitrophenyl)nicotinonitrile] | 214
9 | COc1ccc(-c2cncc(C#N)c2Nc2ccc(OCc3cccc(C#N)c3)c(Cl)c2)cc1OC [Compound 122, 4-({3-chloro-4-[(3-cyanobenzyl)oxy]phenyl}amino)-5-(3,4-dimethoxyphenyl)nicotinonitrile] | 1040
10 | COc1ccc(-c2cncc(C#N)c2Nc2cccc(Br)c2)cc1OC [Compound 135, 4-[(3-bromophenyl)amino]-5-(3,4-dimethoxyphenyl)nicotinonitrile] | 5
11 | N#Cc1cncc(-c2ccccc2[N+](=O)[O-])c1Nc1ccc(F)c(Cl)c1 [Compound 146, 4-[(3-chloro-4-fluorophenyl)amino]-5-(2-nitrophenyl)nicotinonitrile] | 3.85
12 | COc1ccc(-c2cncc(C#N)c2Nc2ccc(Cl)cc2Cl)cc1OC [Compound 126, 4-[(2,4-dichlorophenyl)amino]-5-(3,4-dimethoxyphenyl)nicotinonitrile] | 0.34
13 | COc1ccc(Nc2c(C#N)cncc2-c2ccc(OC)c(OC)c2)cc1OC [Compound 105, 5-(3,4-dimethoxyphenyl)-4-[(3,4-dimethoxyphenyl)amino]nicotinonitrile] | 10.6
14 | COc1ccc(Nc2c(C#N)cncc2-c2ccc(OC)c(OC)c2)c(C)c1 [Compound 114, 5-(3,4-dimethoxyphenyl)-4-[(4-methoxy-2-methylphenyl)amino]nicotinonitrile] | 0.4
15 | COc1ccc(-c2cncc(C#N)c2Nc2cccc(OCc3ccccc3)c2)cc1OC [Compound 117, 4-{[3-(benzyloxy)phenyl]amino}-5-(3,4-dimethoxyphenyl)nicotinonitrile] | 13.8
16 | COc1ccc(-c2cncc(C#N)c2Nc2ccc(Cl)cc2)cc1OC [Compound 108, 4-[(4-chlorophenyl)amino]-5-(3,4-dimethoxyphenyl)nicotinonitrile] | 2.77
17 | COc1ccc(Cl)cc1Nc1c(C#N)cncc1-c1ccc(OC)c(OC)c1 [Compound 116, 4-[(5-chloro-2-methoxyphenyl)amino]-5-(3,4-dimethoxyphenyl)nicotinonitrile] | 3.2
18 | COc1ccc(-c2cncc(C#N)c2Nc2cc(Cl)ccc2Cl)cc1OC [Compound 113, 4-[(2,5-dichlorophenyl)amino]-5-(3,4-dimethoxyphenyl)nicotinonitrile] | 3.6
